Results from US20090047279A1, “(R)-N-Stereoisomers of 7,8-Saturated-4,5-Epoxy-Morphinanium Analogs” (Progenics Pharmaceuticals, Inc., priority 2006, published 2009).
Structures can show the parent of a compound that is named as a salt.

Legend:
μ-opioid receptors [1] = experiment: Evaluation of agonist activity, guinea pig ileum test; settings: for Response to the compound + Naloxone (1.0E−07 M): compound 1.0E−04 M + naloxone 1.0E−07 M
Experimental: (§1) Agonist/antagonist activity at the μ-opioid receptor was determined using the well known guinea pig ileum test. Briefly, an a section of ileum section was placed in a stabilizing solution in a tensed state. Transducers were used to measure changes in tension upon electrical stimulation to the tissue before and after challenge with a potential agonist/antagonist Using a control, constriction inhibition, and constriction inhibition cancellation, may be measured.
(§2) The results are expressed as a percent of the control response to DAMGO (decrease in which contract amplitude)

μ-opioid receptors [2] = experiment: Evaluation of antagonist activity, guinea pig ileum test (responses to DAMGO)
Experimental: as §1, §2

[3] = 1.0E−08 M, control DAMGO 1.0E−07 M = 100

| SMILES | Responses to increasing concentrations of the compounds (μ-opioid receptors [1]; 1.0E−04 M) | Responses to increasing concentrations of the compounds (μ-opioid receptors [1]; 1.0E−05 M) | Responses to increasing concentrations of the compounds (μ-opioid receptors [1]; 1.0E−06 M) | Responses to increasing concentrations of the compounds (μ-opioid receptors [1]; 1.0E−07 M) | Responses to increasing concentrations of the compounds (μ-opioid receptors [1]; [3]) | Responses to increasing concentrations of the compounds (μ-opioid receptors [1]; 3.0E−05 M) | Responses to increasing concentrations of the compounds (μ-opioid receptors [1]; 3.0E−06 M) | Responses to increasing concentrations of the compounds (μ-opioid receptors [1]; 3.0E−07 M) | Responses to increasing concentrations of the compounds (μ-opioid receptors [1]; 3.0E−08 M) | Response to the compound + Naloxone (1.0E−07 M) (μ-opioid receptors [1]) | Responses to DAMGO (1.0E−07 M) in the presence of increasing concentrations of the compounds (μ-opioid receptors [2]; 1.0E−04 M) | Responses to DAMGO (1.0E−07 M) in the presence of increasing concentrations of the compounds (μ-opioid receptors [2]; 1.0E−05 M) | Responses to DAMGO (1.0E−07 M) in the presence of increasing concentrations of the compounds (μ-opioid receptors [2]; 1.0E−06 M) | Responses to DAMGO (1.0E−07 M) in the presence of increasing concentrations of the compounds (μ-opioid receptors [2]; 1.0E−07 M) | Responses to DAMGO (1.0E−07 M) in the presence of increasing concentrations of the compounds (μ-opioid receptors [2]; 1.0E−08 M) | Responses to DAMGO (1.0E−07 M) in the presence of increasing concentrations of the compounds (μ-opioid receptors [2]; 3.0E−05 M) | Responses to DAMGO (1.0E−07 M) in the presence of increasing concentrations of the compounds (μ-opioid receptors [2]; 3.0E−06 M) | Responses to DAMGO (1.0E−07 M) in the presence of increasing concentrations of the compounds (μ-opioid receptors [2]; 3.0E−07 M) | Responses to DAMGO (1.0E−07 M) in the presence of increasing concentrations of the compounds (μ-opioid receptors [2]; 3.0E−08 M) | also measured |
| --- | --- | --- | --- | --- | --- | --- | --- | --- | --- | --- | --- | --- | --- | --- | --- | --- | --- | --- | --- | --- |
| CCCOC1C[C@@H](O)[C@@H]2Oc3c(O)ccc4c3[C@@]23CC[N+](C)(CC2CC2)[C@H](C4)[C@]13O (stereo partly drawn) [(R)-CPM, trifluoroacetate] | 22% of the control response to DAMGO | 0% of the control response to DAMGO | 0% of the control response to DAMGO | 0% of the control response to DAMGO | 0% of the control response to DAMGO | 5% of the control response to DAMGO | 0% of the control response to DAMGO | 0% of the control response to DAMGO | 0% of the control response to DAMGO | 17% of the control response to DAMGO | 22% of the control response to DAMGO | 5% of the control response to DAMGO | 32% of the control response to DAMGO | 90% of the control response to DAMGO | 100% of the control response to DAMGO | 12% of the control response to DAMGO | 11% of the control response to DAMGO | 69% of the control response to DAMGO | 100% of the control response to DAMGO | – |
| C[N@+]1(CC2CCCC2)CC[C@]23c4c5ccc(O)c4O[C@H]2C(=O)CC[C@@]3(O)[C@H]1C5 [(R)-CPTM, (R)-17-cyclopentylmethyl-4,5α-epoxy-3,14-dihydroxy-17-methyl-6-oxomorphinanium iodide] | 18% of the control response to DAMGO | 0% of the control response to DAMGO | 0% of the control response to DAMGO | 0% of the control response to DAMGO | 0% of the control response to DAMGO | 12% of the control response to DAMGO | 0% of the control response to DAMGO | 0% of the control response to DAMGO | 0% of the control response to DAMGO | 18% of the control response to DAMGO | 40% of the control response to DAMGO | 28% of the control response to DAMGO | 21% of the control response to DAMGO | 84% of the control response to DAMGO | 100% of the control response to DAMGO | 34% of the control response to DAMGO | −1% of the control response to DAMGO | 63% of the control response to DAMGO | 96% of the control response to DAMGO | – |
| C[C@@H](NC(=O)[C@@H](N)Cc1ccc(O)cc1)C(=O)NCC(=O)N(C)[C@@H](Cc1ccccc1)C(=O)NCCO [DAMGO, reference compound] | – | – | 103% of the control response to DAMGO | 96% of the control response to DAMGO | 57% of the control response to DAMGO | – | – | – | – | – | – | – | – | – | – | – | – | – | – | Responses to increasing concentrations of the compounds (μ-opioid receptors [1]; 1.0E−09 M): 9% of the control response to DAMGO; Response to DAMGO + Naloxone (1.0E−07 M) (μ-opioid receptors [1]; DAMGO after the highest concentration, + naloxone 1.0E−07 M): 4% of the control response to DAMGO |
